US20230365584A1, “HETEROCYCLIC PERICONDENSED CDC7 KINASE INHIBITORS FOR THE TREATMENT OF CANCER” (SCHRÖDINGER, INC., priority 2020, published 2023)

Assays:
[1] = biological target: Full length human CDC7 protein co-expressed with DBF4 (Homo sapiens (Human), UniProt O00311); experiment: CDC7 kinase biochemical assay (ADP-Glo, PDKtide substrate); conditions: 0.1 nM CDC7/DBF4, 1 uM ATP, 10 uM PDKtide, 4 h
Experimental: CDC7 Kinase Biochemical Assay Protocol:
Full length human CDC7 protein co-expressed with DBF4 was purchased from SignalChem (China). CDC7 kinase activity was determined with PDKtide (SignalChem) as a substrate and by measuring ADP production using the ADP-Glo™ Kinase Assay kit (Promega) following the manufacturers instructions. The kinase reaction was performed using the following conditions: Buffer: 40 mM Tris pH 7.5, 20 mM MgCl2, 0.1 mg/ml BSA and 50 uM DTT. Final reaction mix contained 0.1 nM CDC7/DBF4, 1 uM ATP and 10 uM PDKtide. The kinase reaction time was 4 h. The ADP-Glo signal was measured using an EnVision plate reader (PerkinELmer).
Percent inhibition of CDC7 kinase activity was calculated based on the following formula:
[formula] • Ssample: the signal of compounds • SHigh Ctrl: the signal of high control (DMSO) • SLow Ctrl: the signal of low control (positive control CDC7 inhibitor)

[2] = system: phosphorylation of MCM2 S53 in colo205 cells; experiment: Phosphorylated MCM2 MSD electrochemiluminescence assay; type: cell-based; conditions: Homo sapiens, COLO 205, 20 h incubation, read-out: pMCM2-S53 MSD Colo205 IC50
Experimental: Phosphorylated MCM2 MSD Electrochemiluminescence Assay
The effect of CDC7 inhibitors on cellular phosphorylation of the CDC7 substrate MCM2 was determined using the following protocol:
A total of 40,000 colo205 cells in 100 uL culture medium (1640 medium+10% Fetal bovine serum+1% Penicillin-Streptomycin) were plated in 96-well cell culture plates and allowed to attach for 6 hours. 3-fold serial dilutions of test compounds were prepared in completed PBS at 25×final concentration and 4 uL of each were added to the cells and incubated for 20 hours at 37° C., 5% CO2. Each concentration was tested in duplicate. After the 20 h incubation, cells were washed with 150 uL PBS and lysed with 40 uL MSD lysis buffer (obtained from Meso Scale Diagnostics) supplied with 1×complete ULTRA cocktail inhibitor (obtained from Roche). To detect phosphorylation of MCM2 S53, 30 μL of capture antibody solution (obtained from Abnova, catalog number H00004171-MO1, 1:500) was added to each well of MULTI-ARRAY 96-well High Bind Plate, and incubated overnight. The antibody solution was removed, wells blocked with BSA solution and plates washed, followed by addition of 30 ul of cell lysate per well. After 2 h incubation, plates were washed. 30 μL of 1×detection antibody solution (obtained from Abcam, catalog number ab109133, 1:1000) was then added to each well and incubate for 1 hour. Plates were washed and 30 μL of 1×secondary antibody solution (obtained from MSD, catalog number R32AB-1, 1:5000) was added to each well and incubate for 1 hour. Plates were washed and 150 µL of 1×Read Buffer T was added to each well of the MSD plate. The electrochemiluminescence signal was measured on a MESO SECTOR S600 plate reader. The percentage of remaining phosphorylated MCM2 signal was calculated following the equation below.
[formula] • HC (high control): Cells treated with DMSO • Cpds: Cells treated with test compounds • LC (low control): Cells treated with positive control CDC7 inhibitor

Sequence of Full length human CDC7 protein co-expressed with DBF4 (O00311 whole entry): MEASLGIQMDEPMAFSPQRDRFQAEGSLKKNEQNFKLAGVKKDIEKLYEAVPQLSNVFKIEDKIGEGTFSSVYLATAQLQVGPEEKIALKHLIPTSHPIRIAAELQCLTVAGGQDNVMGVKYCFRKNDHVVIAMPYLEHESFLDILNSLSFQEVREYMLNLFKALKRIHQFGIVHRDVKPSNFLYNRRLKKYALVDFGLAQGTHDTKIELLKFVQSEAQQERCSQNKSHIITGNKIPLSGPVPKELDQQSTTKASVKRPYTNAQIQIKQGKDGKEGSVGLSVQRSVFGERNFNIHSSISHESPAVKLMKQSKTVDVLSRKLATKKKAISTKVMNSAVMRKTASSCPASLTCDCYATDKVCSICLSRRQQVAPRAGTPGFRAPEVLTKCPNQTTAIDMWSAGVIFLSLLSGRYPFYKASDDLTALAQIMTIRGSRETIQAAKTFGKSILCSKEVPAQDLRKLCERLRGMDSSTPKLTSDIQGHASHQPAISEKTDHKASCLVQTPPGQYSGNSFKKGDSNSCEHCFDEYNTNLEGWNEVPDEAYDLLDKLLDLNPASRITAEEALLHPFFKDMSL
Sequence of Full length human CDC7 protein co-expressed with DBF4 (Q9UBU7 whole entry partner): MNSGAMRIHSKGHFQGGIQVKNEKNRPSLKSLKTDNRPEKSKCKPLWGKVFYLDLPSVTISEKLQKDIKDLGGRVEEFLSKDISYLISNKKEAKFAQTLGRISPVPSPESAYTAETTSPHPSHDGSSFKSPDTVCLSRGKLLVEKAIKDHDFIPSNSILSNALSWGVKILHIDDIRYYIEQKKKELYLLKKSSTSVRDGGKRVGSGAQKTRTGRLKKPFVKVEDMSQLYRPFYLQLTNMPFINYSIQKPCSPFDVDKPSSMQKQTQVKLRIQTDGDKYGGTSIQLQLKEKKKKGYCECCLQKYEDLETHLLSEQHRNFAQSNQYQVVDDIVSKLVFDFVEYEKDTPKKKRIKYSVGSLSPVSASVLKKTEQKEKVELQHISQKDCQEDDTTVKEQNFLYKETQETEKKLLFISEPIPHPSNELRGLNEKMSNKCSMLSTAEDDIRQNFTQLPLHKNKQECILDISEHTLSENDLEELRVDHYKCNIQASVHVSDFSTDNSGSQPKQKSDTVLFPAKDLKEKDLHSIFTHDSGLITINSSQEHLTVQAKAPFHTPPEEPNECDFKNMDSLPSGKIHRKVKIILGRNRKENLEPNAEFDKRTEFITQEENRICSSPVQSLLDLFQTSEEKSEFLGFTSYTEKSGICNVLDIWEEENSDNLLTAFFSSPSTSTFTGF

IC50 [1] [nM] | IC50 [2] [nM] | Structure (SMILES)
< 1 | ≥ 1000 | Nc1[nH]c(=O)c2sc(-c3cn[nH]c3)c3c2c1CCCO3 [Example 54, 7-amino-2-(1H-pyrazol-4-yl)-12-oxa-3-thia-6-azatricyclo[6.4.1.0^4,13]trideca-1,4(13),7-trien-5-one]
< 1 | < 100 | O=c1[nH]c(CN2CCC2)c2c3c(c(-c4cn[nH]c4)sc13)OCC(F)(F)C2 [Example 44, 7-(azetidin-1-ylmethyl)-10,10-difluoro-2-(1H-pyrazol-4-yl)-12-oxa-3-thia-6-azatricyclo[6.4.1.0^4,13]trideca-1,4(13),7-trien-5-one]
< 1 | < 100 | CC(C)(O)c1[nH]c(=O)c2sc(-c3cn[nH]c3)c3c2c1CCCO3 [Example 28, 5-(2-hydroxypropan-2-yl)-1-(1H-pyrazol-4-yl)-4,6,7,8-tetrahydro-3H-9-oxa-2-thia-4-azabenzo[cd]azulen-3-one]
< 1 | < 100 | CC[C@](C)(O)c1[nH]c(=O)c2sc(-c3cn[nH]c3)c3c2c1CCCO3 (single isomer, unassigned) [Example 57]
< 1 | 100 to 1000 | Cc1[nH]c(=O)c2sc(-c3ccncc3)c3c2c1C[C@@H](C)O3 (single isomer, unassigned) [Example 7]
< 1 | 100 to 1000 | CC(C)NCc1[nH]c(=O)c2sc(-c3cn[nH]c3)c3c2c1CCCO3 [Example 24, 5-((isopropylamino)methyl)-1-(1H-pyrazol-4-yl)-4,6,7,8-tetrahydro-3H-9-oxa-2-thia-4-azabenzo[cd]azulen-3-one]
< 1 | < 100 | C[C@@H](c1[nH]c(=O)c2sc(-c3cn[nH]c3)c3c2c1CCCO3)n1cccn1 (single isomer, unassigned) [Example 47]
1 to 10 | ≥ 1000 | O=C(c1[nH]c(=O)c2sc(-c3cn[nH]c3)c3c2c1CCCO3)N1CCCC1 [Example 51, 2-(1H-pyrazol-4-yl)-7-(pyrrolidine-1-carbonyl)-12-oxa-3-thia-6-azatricyclo[6.4.1.0^4,13]-trideca-1,4(13),7-trien-5-one]
< 1 | 100 to 1000 | Cc1[nH]c(=O)c2sc(-c3ccncc3)c3c2c1C[C@H](C)O3 (single isomer, unassigned) [Example 8]
< 1 | < 100 | O=c1[nH]c(CN2CCC2)c2c3c(c(-c4cn[nH]c4)sc13)OCCC2 [Example 13, 5-(azetidin-1-ylmethyl)-1-(1H-pyrazol-4-yl)-4,6,7,8-tetrahydro-3H-9-oxa-2-thia-4-azabenzo[cd]azulen-3-one]
< 1 | < 100 | C[C@H](c1[nH]c(=O)c2sc(-c3cn[nH]c3)c3c2c1CCCO3)N1CCC1 (single isomer, unassigned) [Example 31]
< 1 | 100 to 1000 | C[C@H](c1[nH]c(=O)c2sc(-c3cn[nH]c3)c3c2c1CCCO3)n1cccn1 (single isomer, unassigned) [Example 46]
< 1 | < 100 | CC[C@@](C)(O)c1[nH]c(=O)c2sc(-c3cn[nH]c3)c3c2c1CCCO3 (single isomer, unassigned) [Example 58]
< 1 | < 100 | C[C@@H](c1[nH]c(=O)c2sc(-c3cn[nH]c3)c3c2c1CCCO3)N1CCC1 (single isomer, unassigned) [Example 30]
< 1 | 100 to 1000 | Cc1[nH]c(=O)c2sc(-c3ccncc3)c3c2c1CCCO3 [Example 1, 5-methyl-1-(pyridin-4-yl)-4,6,7,8-tetrahydro-3H-9-oxa-2-thia-4-azabenzo[cd]azulen-3-one]
< 1 | < 100 | Cc1[nH]c(=O)c2sc(-c3cn[nH]c3)c3c2c1CCCO3 [Example 5, 5-methyl-1-(1H-pyrazol-4-yl)-4,6,7,8-tetrahydro-3H-9-oxa-2-thia-4-azabenzo[cd]azulen-3-one]

Structure (SMILES) | IC50 [1] [nM] | IC50 [2] [nM]
O=c1[nH]c(COC2CCC2)c2c3c(c(-c4cn[nH]c4)sc13)OCCC2 [Example 55, 5-(cyclobutoxymethyl)-1-(1H-pyrazol-4-yl)-4,6,7,8-tetrahydro-3H-9-oxa-2-thia-4-azaben-zo[cd]azulen-3-one] | < 1 | < 100
